According to PMC4718634, “Murine GPRC6A Mediates Cellular Responses to L-Amino Acids, but Not Osteocalcin Variants” (PLoS ONE, 2016):
“Also recorded” adds a separate entry of the source. One block for each compound: values may come before it. Ends that are not written are not given here.

Experiments:
[1] = biological target: T1, mGPRC6A (mouse GPRC6A) (Mus musculus, UniProt Q8K4Z6); assay: Label-free cell impedance (xCELLigence), tetracycline-induced FlpIn-TREx-HEK293-mGPRC6A cells; format: cell-based; details: tetracycline-induced; xCELLigence; Fig 4
T1 sequence (Q8K4Z6 21-928): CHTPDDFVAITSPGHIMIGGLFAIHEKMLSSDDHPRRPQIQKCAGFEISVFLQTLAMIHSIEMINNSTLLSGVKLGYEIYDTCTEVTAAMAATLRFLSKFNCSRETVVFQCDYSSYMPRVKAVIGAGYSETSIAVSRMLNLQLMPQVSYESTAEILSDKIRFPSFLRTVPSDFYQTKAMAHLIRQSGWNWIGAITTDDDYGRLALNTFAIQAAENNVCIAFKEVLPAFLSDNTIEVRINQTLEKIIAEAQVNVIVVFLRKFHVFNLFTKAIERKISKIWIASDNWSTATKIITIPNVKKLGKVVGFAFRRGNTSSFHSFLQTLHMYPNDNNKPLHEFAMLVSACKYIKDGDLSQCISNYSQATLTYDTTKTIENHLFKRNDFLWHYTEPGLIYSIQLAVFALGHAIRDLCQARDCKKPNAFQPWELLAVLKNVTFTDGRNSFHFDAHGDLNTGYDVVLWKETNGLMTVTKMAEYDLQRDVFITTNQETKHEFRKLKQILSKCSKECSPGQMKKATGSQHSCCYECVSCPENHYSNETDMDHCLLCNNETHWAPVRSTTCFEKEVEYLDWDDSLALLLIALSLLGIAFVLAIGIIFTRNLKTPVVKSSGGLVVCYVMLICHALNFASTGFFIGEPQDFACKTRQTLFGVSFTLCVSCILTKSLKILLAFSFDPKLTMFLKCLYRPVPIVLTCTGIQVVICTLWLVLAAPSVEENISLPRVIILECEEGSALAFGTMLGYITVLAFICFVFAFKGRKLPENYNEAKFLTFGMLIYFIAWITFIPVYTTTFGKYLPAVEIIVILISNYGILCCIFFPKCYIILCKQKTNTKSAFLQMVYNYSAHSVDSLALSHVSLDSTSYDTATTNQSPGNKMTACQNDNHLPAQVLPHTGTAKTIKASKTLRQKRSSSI
Method: (§1) 2.5 x 10^7 FlpIn-TREx-HEK293-mGPRC6A cells were seeded in a T175 flask and incubated overnight at 37°C in 5% CO2. Cells were then transfected with 35 μg of plasmid DNA (GαqG66D) with Lipofectamine LTX according to manufacturer's instructions, then incubated for 24h at 37°C in 5% CO2. Prior to the experiment, a background reading for each E-plate 96 (Bio-Rad, CA, USA) was measured after addition of 100 μl DMEM + 10% FBS per well. Cells were recovered using Versene and seeded at a 10^5 cells/well density in 200 μl DMEM + 10% FBS (containing 1 μg/ml tetracycline where indicated). Cells were washed 2 x 2 h in HBSS buffer (pH 7.2) containing 20 mM HEPES, 1 mM CaCl2 and 0.1% BSA (w/v) in a total volume of 180 μl. Test compounds (20 μl at 10x final concentration) were added to the plate and cell impedance was monitored for 3 h. Cell index was normalised to the buffer response (minus the baseline response at zero time point).
(§2) Concentration-response data were analysed using a three or four parameter logistic function (Motulsky & Christopoulos, 2004) to generate estimates of agonist potency (LogEC50). Data for all HEK293 assays represent the mean ± SEM of at least three independent experiments (except cell impedance, n = 2). For GLP-1 release, the data represent mean ± SEM of three to five independent experiments (except for OCN, wash; n = 2). For insulin release assays, data represent the mean ± SEM of three independent experiments (except for islet studies; n = 2). Insulin release data were normalised to the response to vehicle in either low or high [glucose]. Statistical analysis for GLP-1 release data were performed by one-way ANOVA, followed by Sidak’s multiple comparisons test (treating wash / no wash datasets separately). Statistical analyses for insulin release data were performed by two-way ANOVA (with [glucose] and drug treatment as group variables), followed by Sidak’s multiple comparisons test. Where only high [glucose] groups were evaluated, statistical analysis was by one-way ANOVA followed by Sidak’s multiple comparisons test.

[2] = tested on: un-induced FlpIn-TREx-HEK293-mGPRC6A cells; assay: Label-free cell impedance, un-induced FlpIn-TREx-HEK293-mGPRC6A cells; format: cell-based; details: Fig 4
Method: as §1

[3] = tested on: hC6A; details: ref [9] (supplement list); cited from earlier work
Source text: (§3) Supplement pone.0146846.s004.docx, table 1 | column: Functional assay

[4] = tested on: 22RV1 / PC-3; details: endogenous; ref [9] (supplement list); cited from earlier work
Source text: as §3

[5] = tested on: β-TC6 cells; assay: Insulin release from β-TC6 cells; format: cell-based, murine; details: P < 0.001, P < 0.0001, two-way ANOVA, S3 Fig A
Method: (§4) MIN6 or βTC-6 cells were seeded in 24-well plates at 170,000 cells per well in DMEM (containing 4.5g/L glucose, 10 mM HEPES, 100 U/ml penicillin, 100 μg/ml streptomycin and 15% de-complemented FBS) and incubated at 37°C / 5% CO2 for 72 h. Cells were then washed with 500 μl PBS and incubated in 500 μl deprivation media (DMEM with zero glucose, 10 mM HEPES, 1 mM Na-pyruvate, 100 U/ml penicillin, 100 μg/ml streptomycin, 15% de-complemented FBS) for 2 h at 37°C. Media was aspirated and after washing with 500 μl PBS, cells were treated with 250 μl of Krebs buffer (250 mM NaCl, 5.9 mM KCl, 1.2 mM MgCl2, 1.3 mM CaCl2, 25 mM HEPES, 0.1% BSA (w/v), and 2 mM or 16.7 mM glucose; pH 7.4) in the presence or absence of test compound. After incubation for 2 h at 37°C, the assay was terminated by placing the plates on ice and supernatants were transferred to a 96-well plate in preparation for insulin ELISA (Alpco) following manufacturer’s instructions. The cell monolayer was washed twice with 500 μl of PBS and then lysed using 250 μl of 1 N NaOH prior to protein measurement by the method of Bradford (1976).
as §2

[6] = tested on: mouse pancreatic islets; assay: Insulin release from mouse pancreatic islets; format: cell-based; details: n = 2; P < 0.001, P < 0.0001; S3 Fig B
Method: Islets were collagenase-isolated from mice (10 x C57Bl/6; 12–13 weeks; Charles River) and incubated overnight in RPMI (with 10% FBS (v/v), 10 mM HEPES, 100 U/ml penicillin, 100 μg/ml streptomycin, sodium pyruvate and 10 mM glucose) at 37°C in 5% CO2. Islets were seeded into a 96-well plate (4 / well) in Kreb’s buffer containing 2.8 mM glucose and washed twice with the same buffer. 200 μl test drugs were added in Kreb’s buffer with the required concentration of glucose and incubated at 37°C in 5% CO2 for 90 min. The plate was centrifuged for 10 s at 200 g, supernatant recovered and insulin levels detected as described above. This protocol was approved by the IDRS (Institut de Recherches Servier) Institutional Animal Care and Use Committee.
as §2

[7] = tested on: MIN6 cells; assay: Insulin release from MIN6 cells; format: cell-based, murine; details: 16.7 mM glucose; P < 0.0001, two-way ANOVA; Fig 6B
Method: as §4, §2

[8] = tested on: INS-1(832) cells; assay: Label-free cell impedance, INS-1(832) cells; format: cell-based, rat; details: Gprc6a-negative, EBSS, 2.8 mM glucose, Fig 7, two-way ANOVA, *P < 0.05, **P < 0.01 vs Vehicle
Method: For INS-1 cells, 100 μl of medium (RPMI 1640 no glucose, 10% FBS, 55 μM β-mercaptoethanol, 1 mM sodium pyruvate, 10 mM HEPES, 100 U/ml penicillin, 100 μg/ml streptomycin, 11.1 mM glucose) was added per well to an E-plate 96 and a background reading taken. Cells were seeded at 2 x 10^4 / well and the plates incubated in the instrument for 48 h. On the day of the experiment, media was changed to EBSS buffer (180 μl; 2.8 mM glucose, 1.8 mM CaCl2, 5.3 mM KCl, 0.8 mM MgSO4, 117 mM NaCl, 26 mM NaHCO3, 1 mM NaH2PO4). After 2 h incubation, cells were stimulated with 20 μl test compound (10 x final) prepared in the same buffer. Data capture and analysis were as for HEK293 cells.

Compound: Nc1ncnc2c1ncn2[C@@H]1O[C@H](COP(=O)(O)OP(=O)(O)OP(=O)(O)O)[C@@H](O)[C@H]1O [ATP]
cell impedance (cell index) response [1]: concentration-dependent increase in cell index; also recorded: increases cellular impedance | cell impedance (cell index) response [2]: concentration-dependent increase in cell index; also recorded: increases cellular impedance

Compound: [Cl-].[Cl-].[Zn+2] [ZnCl2]
pERK1/2 response [3]: pERK1/2 – response to Ca^2+, ZnCl2, OCN, Arginine, Testosterone-BSA | pERK1/2 response [4]: pERK1/2 – response to Ca^2+, ZnCl2, OCN, Arginine, Testosterone-BSA Proliferation – response to Ca^2+, OCN PSA, Runx2 expression – response to OCN, Arg, R1881 Chemotaxis (22RV1) – response to Ca^2+, OCN

Compound: OC[C@H]1OC(O)[C@H](O)[C@@H](O)[C@@H]1O (stereo partly drawn) [glucose]
insulin secretion, glucose effect [5]: released insulin in a glucose-sensitive manner | insulin secretion, glucose effect ([5]; listed as Glucose): significantly enhanced insulin secretion | insulin secretion, glucose effect [6]: released insulin in a glucose-sensitive manner; also recorded: significantly enhanced insulin secretion | insulin secretion, glucose effect [7]: significantly promoted insulin secretion; also recorded: significantly enhanced insulin secretion

cell impedance (cell index) response [1]: did not change cell impedance
Compound: Bovine OCN: Purified bovine osteocalcin from bone (Meridian Life Science), carboxylated / under-carboxylated (YLDHWLGAPAPYPDPLEPKREVCELNPDCDELADHIGFQEAYRRFYGPV; ends and bridges not checked; also: γ-carboxyglutamic acid residues, partially carboxylated)
change in cell impedance (cell index) [8]: significant, concentration-dependent activity | change in cell impedance (cell index) ([8]; listed as purified bovine OCN): significant changes in cell impedance; also recorded: Concentration-dependent increases in cell index | cell impedance (cell index) response [2]: did not change cell impedance
